pIC50: −log10 of the molar value.
Test system: 379773-124-R-J2-PDC spheroid viability
Test: Anticancer human tumor 379773-124-R-J2-PDC patient-derived endometrial carcinoma cell line growth inhibition [POLQ]
Details: spheroids with HUVEC and MSC; for pIC50: curve of first compound; for viability, T/C: stronger effect = lower value
Outline: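 PDC + HUVEC + MSC complex spheroids; POLQ inhibitors ± partner drugs; top conc. at/near clinical Cmax, else 10 microM (SN-38 1 microM), half-log dilutions; 37 degrees C, 5% CO2.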

[1] = second compound 0.0316 µM, first compound 0.0316 µM
[2] = second compound 0.0316 µM, first compound 0.1 µM
[3] = second compound 0.0316 µM, first compound 0.316 µM
[4] = second compound 0.0316 µM, first compound 1 µM
[5] = second compound 0.0316 µM, first compound 3.16 µM
[6] = second compound 0.0316 µM, first compound 10 µM
[7] = second compound 0.1 µM, first compound 0.0316 µM
[8] = second compound 0.1 µM, first compound 0.1 µM
[9] = second compound 0.1 µM, first compound 0.316 µM
[10] = second compound 0.1 µM, first compound 1 µM
[11] = second compound 0.1 µM, first compound 3.16 µM
[12] = second compound 0.1 µM, first compound 10 µM
[13] = second compound 0.316 µM, first compound 0.0316 µM
[14] = second compound 0.316 µM, first compound 0.1 µM
[15] = second compound 0.316 µM, first compound 0.316 µM
[16] = second compound 0.316 µM, first compound 1 µM
[17] = second compound 0.316 µM, first compound 3.16 µM
[18] = second compound 0.316 µM, first compound 10 µM
[19] = second compound 1 µM, first compound 0.0316 µM
[20] = second compound 1 µM, first compound 0.1 µM
[21] = second compound 1 µM, first compound 0.316 µM
[22] = second compound 1 µM, first compound 1 µM
[23] = second compound 1 µM, first compound 3.16 µM
[24] = second compound 1 µM, first compound 10 µM
[25] = second compound 3.16 µM, first compound 0.0316 µM
[26] = second compound 3.16 µM, first compound 0.1 µM
[27] = second compound 3.16 µM, first compound 0.316 µM
[28] = second compound 3.16 µM, first compound 1 µM
[29] = second compound 3.16 µM, first compound 3.16 µM
[30] = second compound 3.16 µM, first compound 10 µM
[31] = second compound 10 µM, first compound 0.0316 µM
[32] = second compound 10 µM, first compound 0.1 µM
[33] = second compound 10 µM, first compound 0.316 µM
[34] = second compound 10 µM, first compound 1 µM
[35] = second compound 10 µM, first compound 3.16 µM
[36] = second compound 10 µM, first compound 10 µM
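Further: spheroids exposed to drugs for seven days before readout.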
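Wherever viability, T/C is given: percent viability relative to DMSO vehicle control taken as 100%.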

## O=C(Nc1ccc(O)c(NS(=O)(=O)c2ccc(F)cc2)c1)c1ccc(-c2ccccc2)cc1 + COC1C(OC(N)=O)C(O)C(Oc2ccc3c(O)c(NC(=O)c4ccc(O)c(CC=C(C)C)c4)c(=O)oc3c2C)OC1(C)C
Second compound 0.0316 µM
  pIC50: < 5.00
Second compound 0.1 µM
  pIC50: < 5.00
Second compound 0.316 µM
  pIC50: < 5.00
Second compound 1 µM
  pIC50: < 5.00
Second compound 3.16 µM
  pIC50: < 5.00
Second compound 10 µM
  pIC50: < 5.00
[1]
  viability, T/C: 88.1%
[2]
  viability, T/C: 79.6%
[3]
  viability, T/C: 87.4%
[4]
  viability, T/C: 75%
[5]
  viability, T/C: 82.5%
[6]
  viability, T/C: 76.2%
[7]
  viability, T/C: 83.5%
[8]
  viability, T/C: 77.2%
[9]
  viability, T/C: 99.9%
[10]
  viability, T/C: 79.5%
[11]
  viability, T/C: 75.8%
[12]
  viability, T/C: 74%
[13]
  viability, T/C: 82%
[14]
  viability, T/C: 92.8%
[15]
  viability, T/C: 95.6%
[16]
  viability, T/C: 73.4%
[17]
  viability, T/C: 86.4%
[18]
  viability, T/C: 67.1%
[19]
  viability, T/C: 95.1%
[20]
  viability, T/C: 73.5%
[21]
  viability, T/C: 79.8%
[22]
  viability, T/C: 79%
[23]
  viability, T/C: 83.9%
[24]
  viability, T/C: 70.1%
[25]
  viability, T/C: 79.2%
[26]
  viability, T/C: 88.2%
[27]
  viability, T/C: 77.9%
[28]
  viability, T/C: 80.7%
[29]
  viability, T/C: 90.3%
[30]
  viability, T/C: 83.3%
[31]
  viability, T/C: 84.4%
[32]
  viability, T/C: 78.9%
[33]
  viability, T/C: 80.7%
[34]
  viability, T/C: 80.4%
[35]
  viability, T/C: 75.3%
[36]
  viability, T/C: 74.6%

## CC1COCCN1c1cc(C2(S(C)(=N)=O)CC2)nc(-c2ccnc3[nH]ccc23)n1 (stereo not given) + Cc1cccc(N(C)C(=O)C2C(O)CCN2c2nc(C)cc(C(F)(F)F)c2C#N)c1
Second compound 0.0316 µM
  pIC50: 5.69
Second compound 0.1 µM
  pIC50: 5.73
Second compound 0.316 µM
  pIC50: 5.71
Second compound 1 µM
  pIC50: 5.74
Second compound 3.16 µM
  pIC50: 5.69
Second compound 10 µM
  pIC50: 5.79
[1]
  viability, T/C: 83.3%
[2]
  viability, T/C: 84.7%
[3]
  viability, T/C: 81.1%
[4]
  viability, T/C: 77%
[5]
  viability, T/C: 34.2%
[6]
  viability, T/C: 5.98%
[7]
  viability, T/C: 89.4%
[8]
  viability, T/C: 91.2%
[9]
  viability, T/C: 79.7%
[10]
  viability, T/C: 81.5%
[11]
  viability, T/C: 23.9%
[12]
  viability, T/C: 5.96%
[13]
  viability, T/C: 87.1%
[14]
  viability, T/C: 97%
[15]
  viability, T/C: 80.1%
[16]
  viability, T/C: 78.6%
[17]
  viability, T/C: 30.6%
[18]
  viability, T/C: 8.62%
[19]
  viability, T/C: 81.4%
[20]
  viability, T/C: 78.8%
[21]
  viability, T/C: 79.8%
[22]
  viability, T/C: 69.4%
[23]
  viability, T/C: 32.7%
[24]
  viability, T/C: 6.64%
[25]
  viability, T/C: 84.4%
[26]
  viability, T/C: 88.7%
[27]
  viability, T/C: 79.2%
[28]
  viability, T/C: 61.8%
[29]
  viability, T/C: 42.2%
[30]
  viability, T/C: 7.75%
[31]
  viability, T/C: 84.6%
[32]
  viability, T/C: 73.3%
[33]
  viability, T/C: 79.2%
[34]
  viability, T/C: 62.5%
[35]
  viability, T/C: 32.2%
[36]
  viability, T/C: 8.39%

## COc1ccc([C@@H](O)c2cc(-c3ncnc4cc(N5CCOCC5)ccc34)c(F)cc2Cl)nn1 + Nc1ccc(C#CCN(C(=O)Cc2ncc(C(F)(F)F)cc2C(F)(F)F)c2ccc(F)cc2)nn1
Second compound 0.0316 µM
  pIC50: 5.01
Second compound 0.1 µM
  pIC50: 5.12
Second compound 0.316 µM
  pIC50: 5.11
Second compound 1 µM
  pIC50: 5.04
Second compound 3.16 µM
  pIC50: 5.15
Second compound 10 µM
  pIC50: 5.06
[1]
  viability, T/C: 98.9%
[2]
  viability, T/C: 104%
[3]
  viability, T/C: 101%
[4]
  viability, T/C: 83.8%
[5]
  viability, T/C: 89.1%
[6]
  viability, T/C: 48.4%
[7]
  viability, T/C: 90.3%
[8]
  viability, T/C: 104%
[9]
  viability, T/C: 89.6%
[10]
  viability, T/C: 95.2%
[11]
  viability, T/C: 77%
[12]
  viability, T/C: 41.6%
[13]
  viability, T/C: 98.4%
[14]
  viability, T/C: 96.2%
[15]
  viability, T/C: 99.3%
[16]
  viability, T/C: 91.4%
[17]
  viability, T/C: 105%
[18]
  viability, T/C: 36.7%
[19]
  viability, T/C: 97.4%
[20]
  viability, T/C: 83.9%
[21]
  viability, T/C: 85.6%
[22]
  viability, T/C: 99.9%
[23]
  viability, T/C: 79.5%
[24]
  viability, T/C: 47.4%
[25]
  viability, T/C: 91.8%
[26]
  viability, T/C: 92.1%
[27]
  viability, T/C: 82.6%
[28]
  viability, T/C: 90.3%
[29]
  viability, T/C: 76.4%
[30]
  viability, T/C: 38.8%
[31]
  viability, T/C: 90.8%
[32]
  viability, T/C: 87%
[33]
  viability, T/C: 87.8%
[34]
  viability, T/C: 85.9%
[35]
  viability, T/C: 105%
[36]
  viability, T/C: 44.2%

## CC(C)n1c(=O)n(C)c2cnc3cc(F)c(-c4ccc(OCCCN5CCCCC5)nc4)cc3c21 + Cc1cccc(N(C)C(=O)C2C(O)CCN2c2nc(C)cc(C(F)(F)F)c2C#N)c1
Second compound 0.0316 µM
  pIC50: < 5.00
Second compound 0.1 µM
  pIC50: < 5.00
Second compound 0.316 µM
  pIC50: < 5.00
Second compound 1 µM
  pIC50: < 5.00
Second compound 3.16 µM
  pIC50: < 5.00
Second compound 10 µM
  pIC50: < 5.00
[1]
  viability, T/C: 89.1%
[2]
  viability, T/C: 76.9%
[3]
  viability, T/C: 83.4%
[4]
  viability, T/C: 77.9%
[5]
  viability, T/C: 83%
[6]
  viability, T/C: 59.9%
[7]
  viability, T/C: 88.8%
[8]
  viability, T/C: 77.1%
[9]
  viability, T/C: 77.2%
[10]
  viability, T/C: 79.9%
[11]
  viability, T/C: 98.7%
[12]
  viability, T/C: 65.8%
[13]
  viability, T/C: 80.3%
[14]
  viability, T/C: 89.8%
[15]
  viability, T/C: 75.9%
[16]
  viability, T/C: 73.6%
[17]
  viability, T/C: 79.7%
[18]
  viability, T/C: 65.1%
[19]
  viability, T/C: 84%
[20]
  viability, T/C: 75.1%
[21]
  viability, T/C: 80.1%
[22]
  viability, T/C: 73.1%
[23]
  viability, T/C: 79.1%
[24]
  viability, T/C: 69.8%
[25]
  viability, T/C: 73.7%
[26]
  viability, T/C: 75.3%
[27]
  viability, T/C: 75.3%
[28]
  viability, T/C: 64.4%
[29]
  viability, T/C: 72%
[30]
  viability, T/C: 72.1%
[31]
  viability, T/C: 78.7%
[32]
  viability, T/C: 79.5%
[33]
  viability, T/C: 89.2%
[34]
  viability, T/C: 73.9%
[35]
  viability, T/C: 70.3%
[36]
  viability, T/C: 56.1%

## C=CCn1c(=O)c2cnc(Nc3ccc(N4CCN(C)CC4)cc3)nc2n1-c1cccc(C(C)(C)O)n1 + COC1C(OC(N)=O)C(O)C(Oc2ccc3c(O)c(NC(=O)c4ccc(O)c(CC=C(C)C)c4)c(=O)oc3c2C)OC1(C)C
Second compound 0.0316 µM
  pIC50: 6.34
Second compound 0.1 µM
  pIC50: 6.37
Second compound 0.316 µM
  pIC50: 6.45
Second compound 1 µM
  pIC50: 6.31
Second compound 3.16 µM
  pIC50: 6.33
Second compound 10 µM
  pIC50: 6.36
Second compound 0.0316 µM, first compound 0.00316 µM
  viability, T/C: 84.1%
Second compound 0.0316 µM, first compound 0.01 µM
  viability, T/C: 74.3%
[1]
  viability, T/C: 89.5%
[2]
  viability, T/C: 79.7%
[3]
  viability, T/C: 71.9%
[4]
  viability, T/C: 1.84%
Second compound 0.1 µM, first compound 0.00316 µM
  viability, T/C: 82.8%
Second compound 0.1 µM, first compound 0.01 µM
  viability, T/C: 73.7%
[7]
  viability, T/C: 85.3%
[8]
  viability, T/C: 81.7%
[9]
  viability, T/C: 66.2%
[10]
  viability, T/C: 3.04%
Second compound 0.316 µM, first compound 0.00316 µM
  viability, T/C: 87.9%
Second compound 0.316 µM, first compound 0.01 µM
  viability, T/C: 74.8%
[13]
  viability, T/C: 88.3%
[14]
  viability, T/C: 88%
[15]
  viability, T/C: 55.3%
[16]
  viability, T/C: 2.39%
Second compound 1 µM, first compound 0.00316 µM
  viability, T/C: 80.6%
Second compound 1 µM, first compound 0.01 µM
  viability, T/C: 89.8%
[19]
  viability, T/C: 78.3%
[20]
  viability, T/C: 88.8%
[21]
  viability, T/C: 78.2%
[22]
  viability, T/C: 2.58%
Second compound 3.16 µM, first compound 0.00316 µM
  viability, T/C: 85.6%
Second compound 3.16 µM, first compound 0.01 µM
  viability, T/C: 86.9%
[25]
  viability, T/C: 79.6%
[26]
  viability, T/C: 77.5%
[27]
  viability, T/C: 74.8%
[28]
  viability, T/C: 3.31%
Second compound 10 µM, first compound 0.00316 µM
  viability, T/C: 77.5%
Second compound 10 µM, first compound 0.01 µM
  viability, T/C: 66.6%
[31]
  viability, T/C: 103%
[32]
  viability, T/C: 81%
[33]
  viability, T/C: 68.6%
[34]
  viability, T/C: 2.21%

Reference: PubChem BioAssay AID1963848 (Molecular Pharmacology Branch, DTP, NCI, 2024)
